Patent US20250032490A1, “THERAPEUTIC REGIMENS FOR TREATMENT OF PAROXYSMAL NOCTURNAL HEMOGLOBINURIA” (Achillion Pharmaceuticals, Inc., priority 2017, published 2025)

How the values were obtained:
rabbit erythrocytes = assay: CAP-mediated hemolysis assay with rabbit erythrocytes; format: cell-based; details: Oryctolagus cuniculus, Erythrocyte; for inhibition at 0.00234 µM: Compound 1 0.00234 μM; for inhibition at 0.00469 µM: Compound 1 0.00469 μM; for inhibition at 0.00938 µM: Compound 1 0.00938 μM; for inhibition at 0.0188 µM: Compound 1 0.0188 μM; for inhibition at 0.0375 µM: Compound 1 0.0375 μM; for inhibition at 0.075 µM: Compound 1 0.075 μM; for inhibition at 0.15 µM: Compound 1 0.15 μM; for inhibition at 0.75 µM: Compound 1 0.75 μM
Method: Inhibition was analyzed by the method of Prichard and Shipman (Prichard, M. N. and C. Shipman, Jr. A Three-Dimensional Model to Analyze Drug-Drug Interactions. Antiviral Research 1990, 14:181-205) Three-dimensional surface graphs of each experiment were generated and analyzed using an Excel spreadsheet program adapted from the MacSynergy II spreadsheet (University of Alabama, Birmingham, AL). The X-axis and Y-axis of each surface graph represent the concentrations of the two test compounds, and the Z-axis represents the difference between measured inhibition and a theoretically determined additive inhibition. For an additive relationship, the surface graph resembles a horizontal plane at Z=0, whereas positive surface peaks indicate greater inhibition than expected and therefore synergy, and negative surface peaks indicate less inhibition than expected and therefore antagonism.
Synergy and antagonism volumes were calculated separately as the summed volumes of peaks respectively above and below the Z=0 plane. Volumes were determined using 95% confidence limits to assure significance.
Inhibition was analyzed by the method of Chou and Talalay (Chou, T.-C. and P. Talalay. Analysis of Combined Drug Effects: A New Look at a Very Old Problem. Trends Pharmacol. Sci. 1983, 4:450-454; Chou, T. C. Theoretical basis, experimental design, and computerized simulation of synergism and antagonism in drug combination studies. Pharmacological Reviews 2006, 58:621-681). Analysis using the median-effect equation of Chou and Talalay was performed with CompuSyn software (ComboSyn, Inc, Paramus, NJ). […] Three constant ratios were analyzed in each experiment, centered approximately at the ratio of the individual IC50 values for the two compounds and ranging two-fold higher and lower. […] Combination index (CI) values were determined at inhibition values of 50%, 75%, and 90%. Interactions were considered additive for CI values between 0.9 and 1.1. […] Interactions were considered slightly antagonistic for CI values between 1.1 and 1.2, moderately antagonistic for CI values between 1.2 and 1.45; antagonistic for CI values between 1.45 and 3.3, and strongly antagonistic for CI values between 3.3 and 10.
Compstatin was obtained from Tocris Bioscience (Bristol, UK). The murine monoclonal antibody to human C5, isotype IgGIK, was obtained as product number A217 from Quidel (San Diego, CA). FUT-175 (nafamostat) was obtained from Calbiochem EMD Millipore (Billerica, MA).
Anti-C5 (murine monoclonal antibody to human C5, isotype IgGIK, product No. A217 from Quidel, San Diego, CA) was obtained as a 1.1 mg/mL stock in buffered saline. Gelatin veronal buffer (GVB) without Ca^++ and Mg (GVB^0), 100 mM MgCl2+100 mM EGTA (MgEGTA), normal human serum (NHS), and 5×10^8/mL rabbit erythrocytes (Er) were obtained from Complement Technology Inc. (Tyler, TX).
GVB^0·MgEGTA was prepared by mixing GVB^0 and 100 mM MgEGTA in a 9:1 ratio. Er cells were used within two weeks of purchase; before each assay cells were collected by centrifugation at 800×g and 4° C. for 3 minutes and the buffer was replaced with equal volume fresh cold GVB^0·MgEGTA.
Each of the 64 possible combinations of compounds at varying concentrations was tested in duplicate or triplicate wells. […] 50 μL GVB^0·MgEGTA was added to each well, followed by 50 μL 20% NHS in GVB^0·MgEGTA. The plates were sealed, mixed on a microtiter plate shaker, and incubated at 37° C. for 15 minutes. 20 μL Er was then added to each well and the plates were sealed, mixed, and incubated at 37° C. for 30 minutes with an added shaking at 15 minutes. The following controls were each included in quadruplicate: 2.4 μL DMSO+120 μL GVB^0·MgEGTA (representing background signal); 2.4 μL DMSO+100 μL GVB^0·MgEGTA+20 μL Er (no serum, representing 0% CAP-mediated lysis); 2.4 μL DMSO+50 μL GVB^0·MgEGTA+50 μL 20% NHS+20 μL Er (no compound, representing 100% CAP-mediated lysis); and 2.4 μL DMSO+100 μL H2O+20 μL Er (osmotic lysis, representing maximal lysis). […]

[1] = test system: complement system alternative pathway; assay: CAP Wieslab assay (CAP-mediated TCC production); format: biochemical, human; details: AP activity in vitro
[2] = Experiment 2, Compstatin 0-30 μM
[3] = Experiment 3, Compstatin 0-30 μM
[4] = Experiment 4, Compstatin 0-30 μM

CC(=O)c1nn(CC(=O)N2C[C@H](F)C[C@H]2C(=O)Nc2cccc(Br)n2)c2ccc(-c3cnc(C)nc3)cc12 [Compound 1, (2S,4R)-1-(2-(3-acetyl-5-(2-methylpyrimidin-5-yl)-1H-indazol-1-yl)acetyl)-N-(6-bromopyridin-2-yl)-4-fluoropyrrolidine-2-carboxamide]
inhibition at 0.00234 µM (rabbit erythrocytes; [2]): 0% | inhibition at 0.00234 µM (rabbit erythrocytes; Experiment 2, FUT-175 0-40 μM): 5% | inhibition at 0.00469 µM (rabbit erythrocytes; [2]): 0% | inhibition at 0.00469 µM (rabbit erythrocytes; Experiment 2, FUT-175 0-40 μM): 7% | inhibition at 0.00938 µM (rabbit erythrocytes; [2]): 3.2% | inhibition at 0.00938 µM (rabbit erythrocytes; Experiment 2, FUT-175 0-40 μM): 13% | inhibition at 0.0188 µM (rabbit erythrocytes; [2]): 16% | inhibition at 0.0188 µM (rabbit erythrocytes; Experiment 2, FUT-175 0-40 μM): 31% | inhibition at 0.0375 µM (rabbit erythrocytes; [2]): 45% | inhibition at 0.0375 µM (rabbit erythrocytes; Experiment 2, FUT-175 0-40 μM): 70% | inhibition at 0.075 µM (rabbit erythrocytes; [2]): 72% | inhibition at 0.15 µM (rabbit erythrocytes; [2]): 91% | inhibition at 0.15 µM (rabbit erythrocytes; Experiment 2, FUT-175 0-40 μM): 98% | inhibition at 0.75 µM (rabbit erythrocytes; Experiment 2, FUT-175 0-40 μM): 95% | inhibition at 0.00234 µM (rabbit erythrocytes; [3]): 3% | inhibition at 0.00234 µM (rabbit erythrocytes; Experiment 3, FUT-175 0-40 μM): 11% | inhibition at 0.00469 µM (rabbit erythrocytes; [3]): 7.7% | inhibition at 0.00469 µM (rabbit erythrocytes; Experiment 3, FUT-175 0-40 μM): 17% | inhibition at 0.00938 µM (rabbit erythrocytes; [3]): 22% | inhibition at 0.00938 µM (rabbit erythrocytes; Experiment 3, FUT-175 0-40 μM): 32% | inhibition at 0.0188 µM (rabbit erythrocytes; [3]): 41% | inhibition at 0.0188 µM (rabbit erythrocytes; Experiment 3, FUT-175 0-40 μM): 54% | inhibition at 0.037 µM (rabbit erythrocytes; Experiment 3, Compound 1 0.037 μM, FUT-175 0-40 μM): 94% | inhibition at 0.0375 µM (rabbit erythrocytes; [3]): 73% | inhibition at 0.075 µM (rabbit erythrocytes; [3]): 96% | inhibition at 0.15 µM (rabbit erythrocytes; [3]): 98% | inhibition at 0.15 µM (rabbit erythrocytes; Experiment 3, FUT-175 0-40 μM): 98% | inhibition at 0.75 µM (rabbit erythrocytes; Experiment 3, FUT-175 0-40 μM): 98% | inhibition at 0.00234 µM (rabbit erythrocytes; [4]): 0.8% | inhibition at 0.00469 µM (rabbit erythrocytes; [4]): 7.1% | inhibition at 0.00938 µM (rabbit erythrocytes; [4]): 20% | inhibition at 0.0188 µM (rabbit erythrocytes; [4]): 41% | inhibition at 0.0375 µM (rabbit erythrocytes; [4]): 81% | inhibition at 0.075 µM (rabbit erythrocytes; [4]): 97% | inhibition at 0.15 µM (rabbit erythrocytes; [4]): 99% | inhibition at 0.00234 µM (rabbit erythrocytes; Experiment #1, FUT-175 0-40 μM): 4.5% | inhibition at 0.00469 µM (rabbit erythrocytes; Experiment #1, FUT-175 0-40 μM): 8.3% | inhibition at 0.0093 µM (rabbit erythrocytes; Experiment #1, Compound 1 0.0093 μM, FUT-175 0-40 μM): 16% | inhibition at 0.0188 µM (rabbit erythrocytes; Experiment #1, FUT-175 0-40 μM): 31% | inhibition at 0.0234 µM (rabbit erythrocytes; Experiment #1, Compound 1 0.0234 μM, Compstatin 0-30 μM): 27% | inhibition at 0.0375 µM (rabbit erythrocytes; Experiment #1, FUT-175 0-40 μM): 44% | inhibition at 0.0469 µM (rabbit erythrocytes; Experiment #1, Compound 1 0.0469 μM, Compstatin 0-30 μM): 44% | inhibition at 0.0938 µM (rabbit erythrocytes; Experiment #1, Compound 1 0.0938 μM, Compstatin 0-30 μM): 75% | inhibition at 0.15 µM (rabbit erythrocytes; Experiment #1, FUT-175 0-40 μM): 96% | inhibition at 0.188 µM (rabbit erythrocytes; Experiment #1, Compound 1 0.188 μM, Compstatin 0-30 μM): 91% | inhibition at 0.375 µM (rabbit erythrocytes; Experiment #1, Compound 1 0.375 μM, Compstatin 0-30 μM): 98% | inhibition at 0.75 µM (rabbit erythrocytes; Experiment #1, Compstatin 0-30 μM): 98% | inhibition at 0.75 µM (rabbit erythrocytes; Experiment #1, FUT-175 0-40 μM): 79% | inhibition at 1.5 µM (rabbit erythrocytes; Experiment #1, Compound 1 1.5 μM, Compstatin 0-30 μM): 98% | IC50 [1]: 26 nM
